Patent publication US6337093B1 (priority 1998, dated 2002)

Tests used:
[1] = system: tumor; test: Combination with bleomycin: tumor growth and life span; settings: in vivo
Text: As for interferons, interleucins and other known immunomoludatory materials, the efficacy of the pharmaceutical preparations of the present invention is restricted by the basic capacity of the immune system to recognize and attack cancer cells. However, the efficacy may be enhanced when the pharmaceutical preparations are combined with other antitumor drugs.

[2] = system: human and mouse lymphocytes; test: Active principle: stimulation of lymphocytes' cytotoxic anticancer activity in vitro; type: cell-based; settings: comparative analysis of minimum active concentrations

Molecule: bleomycin
- Effect on tumor growth and life span [1]: much less effective

B1: NK-lysin (protein, UniProt P22749 23-145, looked up)
Granulysin: RLSPEYYDLARAHLRDEEKSCPCLAQEGPQGDLLTKTQELGRDYRTCLTIVQKLKKMVDKPTQRSVSNAATRVCRTGRSRWRDVCRNFMRRYQSRVTQGLVAGETAQQICEDLRLCIPSTGPL
notes: Human cytolitic peptide which directly kills the target cells
- Concentration to enhance cancer cell destruction relative to the effective concentration of the active principle [2]: more than a million times
